Test [1] relates to retinal neovascularization in C57BL/6 mice. Format: in vivo. Conditions: 5 μg intravitreal P12 and P15; P17; vs vehicle (PBS or DMSO). The source says:
Parstatin (1-41), hydrophobic parstatin (1-26) fragment and hydrophilic parstatin (24-41) fragment were used in an in vivo mouse model of retinal neovascularization. In particular, oxygen-induced retinopathy was used to generate retinal neovascularization as a preclinical disease model for retinopathy of prematurity and other retinal neovascular diseases such as diabetic retinopathy. In this model, exposing newborn mice to hyperoxia prompts regression or delay of retinal vascular development, followed by abnormal angiogenesis after their return to normal oxygen levels. Mainly, this model mirrors the events that occur during retinopathy of prematurity, when infants are removed from oxygen-rich incubators, a condition involving pathological neovascularization that can affect premature infants and result in permanent visual loss. In recent years, the use of this model has been extended to the general study of ischemic vasculopathies, such us diabetic retinopathy, and related antiangiogenic interventions, and it is now used extensively in both basic and applied research environments.
Pathogen-free C57BL/6 mice were treated in accordance with the Association for Research in Vision and Ophthalmology Statement for the Use of Animals in Ophthalmic and Vision Research and the guidelines of the Animal Care and Use Committee at local University Medical School. Litters of 7-day old (P7) mice were exposed to an atmosphere of 75% oxygen in an airtight incubator for 5 days (P12), after which they were returned to room air for 5 days (P17). For quantification of oxygen-induced retinal neovascularization, mice on P17 were given an intraocular injection of 1 μl of rat anti-mouse platelet endothelial cell adhesion molecule-1 (PECAM-1) antibody (Pharmingen, San Jose, Calif.) under a dissecting microscope with Harvard pump microinjection apparatus. Mice were euthanized 12 hours after injection and eyes were fixed in PBS-buffered formalin for 5 hours. […] Retinal flat mounts were prepared and assessed with fluorescence microscope using imaging software. […]

The test system of test [2] is choroidal neovascularization in C57BL/6J mice. Format: in vivo. Conditions: 10 μg intravitreal after laser and day 7; assessed day 14; vs vehicle (PBS or DMSO). The method, then:
Parstatin (1-41), hydrophobic parstatin (1-26) fragment and hydrophilic parstatin (24-41) fragment were used in an in vivo mouse model of choroidal neovascularization. In particular, laser photocoagulation-induced rupture of Bruch's membrane was used to generate choroidal neovascularization as a preclinical disease model for age-related macular degeneration. Pathogen-free C57BL/6J (4-5 week-old) mice were treated in accordance with the Association for Research in Vision and Ophthalmology Statement for the Use of Animals in Ophthalmic and Vision Research and the guidelines of the Animal Care and Use Committee at local University Medical School.
C57BL/6J (4-5 week-old) mice were anesthetized with ketamine hydrochloride (100 mg/kg body weight) and xylazine-(4 mg/Kg body weight) and the pupils were dilated with 1% tropicamide. Laser photocoagulation (75 μm spot size, 0.1 sec duration, 120 mW) was performed in the 9, 12, and 3 o'clock positions of the posterior pole of the retina with the slit lamp delivery system of an Oculight GL diode laser (Index, Mountain View, Calif.) and a handheld cover slip as a contact lens to view the retina. Production of a bubble at the time of laser, which indicates rupture of Bruch's membrane, is an important factor in obtaining CNV. Therefore, only burns in which a bubble was produced were included in the study. Two weeks after rupture of Bruch's membrane, anesthetized mice were perfused with 50 mg/ml fluorescein-labelled-dextran (2×10^6 average molecular weight, Sigma-Aldrich, St. Louis, Mo.). The eyes were then dissected and fixed in 10% Formalin for 3 hours and choroidal flat mounts were examined by fluorescence microscopy. Image-Pro Plus software (Media Cybernetics, Silver Spring, Md.) was used to measure the total area of CNV at each rupture site by personnel blinded as to study treatments and groups.
Intraocular injections of parstatin peptides were performed with a Harvard pump microinjection apparatus and pulled glass micropipets. […] Choroidal neovascularization was assessed 14 days after laser treatment.

With “MGPRRLLLVAACFSLCGPLLSARTRA (listed as Homo sapiens) [parstatin (1-26)]”, the “inhibition of retinal neovascularization” value in test [1] is recorded as 65%. Further, in test [2], the “inhibition of choroidal neovascularization” value amounted to 62%.
On to “TRARRPESKATNATLDPR (listed as Homo sapiens) [parstatin (24-41), 24-41 (18 amino acids) of human parstatin, hydrophilic fragment]”, for which the “inhibition of retinal neovascularization” value in test [1] is on record as 69%. Also, the “inhibition of choroidal neovascularization” value in test [2] was 77%.

(Values after patent publication US9180163B2, “Parstatin peptides” (priority 2009, dated 2015).)
